Measurements taken from BindingDB's records for doi:10.1016/j.bmcl.2012.04.093 (University of Lisbon, 2012).

Molecular target: T1, Neutrophil elastase (Homo sapiens, UniProt P08246)
T1 sequence (P08246 whole entry): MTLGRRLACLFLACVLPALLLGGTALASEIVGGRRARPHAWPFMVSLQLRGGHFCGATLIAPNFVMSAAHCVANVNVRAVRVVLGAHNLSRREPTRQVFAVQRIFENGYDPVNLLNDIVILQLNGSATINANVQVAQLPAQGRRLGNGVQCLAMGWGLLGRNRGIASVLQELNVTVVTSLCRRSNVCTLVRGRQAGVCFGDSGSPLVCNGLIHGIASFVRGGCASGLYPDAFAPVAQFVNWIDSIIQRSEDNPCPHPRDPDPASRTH
Test: Inhibition of human neutrophil elastase using chromogenic substrate (N-MeOSuc-Ala-Ala-Pro-Val-p-nitroanilide after 120 mins

Row | SMILES | IC50 [µM]
1 | Cc1oc(=O)n(Cc2ccccc2)c1O | > 500
2 | COc1ccc(C(=O)n2c(O)c(C)oc2=O)cc1 | > 500
